Where two headings read alike, the source gives them in different places.
Legend:
uninfected CEM cells = experiment: Cellular toxicity in uninfected CEM cells (XTT); type: cell-based; settings: cytotoxicity in 50% of uninfected CEM cells; read-out: TC50 (the source's name)
Procedure: Compound concentrations were 0.32, 1, 3.2, 10, 32, and 100 μM.

[1] = system: HIV infected lymphocyte derived CEM cells; experiment: Cellular Infection Assay, XTT cytopathic procedure in CEM cells (antiviral efficacy); type: cell-based
Procedure: Compounds were tested in lymphocyte derived CEM cells using the XTT cytopathic procedures and were performed at Southern Research Institute (Buckheit, et al., Antiviral Res., 1993;21:247; see also Weislow, et al., J. Nat. Cancer Inst., 1989;81:577). Compound concentrations were 0.32, 1, 3.2, 10, 32, and 100 μM. The EC50 represents the concentration of agent, which reduces HIV cytopathic effects 50% relative to untreated control. Cellular toxicity of the agents are estimated from the TC50 which represents the concentration of the agent which inhibits 50% of the viability of uninfected cells.
EC50 indicates the concentration of the drug which provide 50% protection against HIV.

[2] = target: T1, Recombinant HIV-1 protease (Human immunodeficiency virus type 1 group M subtype B, UniProt P04585); experiment: HIV Protease Assay (Ki); type: biochemical; settings: pH 6.2, 37° C., 40 μM substrate III
T1 construct: Recombinant HIV-1 protease (>96% purity); purchased Bachem Bioscience, Inc. (King of Prussia, Pa.)
Procedure: Recombinant HIV-1 protease (>96% purity) and HIV protease substrate III (the undecapeptide H-His-Lys-Ala-Arg-Val-Leu-Nph-Glu-Ala-Nle-Ser-NH2, 97% purity) were purchased from Bachem Bioscience, Inc. (King of Prussia, Pa.).
The methods employed follow the procedures of Tummino, et al., Archives of Biochemistry and Biophysics, 1995;316:523). […] (total volume, […]). […] The final inhibitor concentrations used were 0 (0.1, 0.2, in some experiments), 0.5, 1, 2, 5, 10, 20, 50, and 100 μM. The solution was mixed, incubated for 5 minutes and the reaction quenched by addition of trifluoracetic acid, 2% final. The (leu-p-nitro-phe) bond of the substrate is cleaved by the enzyme and substrate and products separated by reverse-phase HPLC (high pressure liquid chromatography). Absorbance was measured at 220 nm, peak areas determined, and percentage conversion to product used to calculate percentage control (=[% conversion (+inhibitor)/% conversion (−inhibitor)]×100).
Ki means inhibitory constant; it approximately the equilibrium binding constant for the binding of the inhibitor to the free enzyme.

Compound | melting point [°C] | CC50 (uninfected CEM cells) [µM] | EC50 ([1]; read-out: Antiviral Efficacy EC50; CEM cells, 50% protection against HIV cytopathic effects) [µM] | Ki ([2]; Inhibition of HIV Protease Ki) [pM] | EC50 ([1]; CEM cells, 50% protection against HIV cytopathic effects; read-out: Antiviral Efficacy EC50) [µM] | Ki ([2]; read-out: Inhibition of HIV Protease Ki) [pM]
CCCN(C1=C(O)CC(CCc2ccc(O)cc2)(C(C)C)OC1=O)c1cccc(NS(=O)(=O)c2ccc(C(F)(F)F)cn2)c1 (stereo not shown) [Example 2, 5-Trifluoromethyl-pyridine-2-sulfonic acid [3-({4-hydroxy-6-[2-(4-hydroxy-phenyl)-ethyl]-6-isopropyl-2-oxo-5,6-dihydro-2H-pyran-3-yl}-propyl-amino)-phenyl]-amide] | 107 to 110 | 71 | 1 | 83 |  | 
Pyridine-2-sulfonic acid [3-({4-hydroxy-6-[2-(4-hydroxy-phenyl)-ethyl]-6-isopropyl-2-oxo-5,6-dihydro-2H-pyran-3-yl}-propyl-amino)-phenyl]-amide [Example 14] |  | 210 |  |  | 1.6 | 540

Source: patent US6512006B1, “HIV protease inhibitors” (Warner-Lambert Company, priority 1999, dated 2003)
